Data taken from paper PMC2848298 (Bioorganic & medicinal chemistry letters, 2010).
Where two headings read alike, the source gives them in different places.

What was measured:
[1] = target: T1, ABCG2 (Homo sapiens, UniProt Q9UNQ0); experiment: Cellular accumulation of the ABCG2 substrate pheophorbide-a; conditions: PhA accumulation assay
T1 sequence (Q9UNQ0 1-655): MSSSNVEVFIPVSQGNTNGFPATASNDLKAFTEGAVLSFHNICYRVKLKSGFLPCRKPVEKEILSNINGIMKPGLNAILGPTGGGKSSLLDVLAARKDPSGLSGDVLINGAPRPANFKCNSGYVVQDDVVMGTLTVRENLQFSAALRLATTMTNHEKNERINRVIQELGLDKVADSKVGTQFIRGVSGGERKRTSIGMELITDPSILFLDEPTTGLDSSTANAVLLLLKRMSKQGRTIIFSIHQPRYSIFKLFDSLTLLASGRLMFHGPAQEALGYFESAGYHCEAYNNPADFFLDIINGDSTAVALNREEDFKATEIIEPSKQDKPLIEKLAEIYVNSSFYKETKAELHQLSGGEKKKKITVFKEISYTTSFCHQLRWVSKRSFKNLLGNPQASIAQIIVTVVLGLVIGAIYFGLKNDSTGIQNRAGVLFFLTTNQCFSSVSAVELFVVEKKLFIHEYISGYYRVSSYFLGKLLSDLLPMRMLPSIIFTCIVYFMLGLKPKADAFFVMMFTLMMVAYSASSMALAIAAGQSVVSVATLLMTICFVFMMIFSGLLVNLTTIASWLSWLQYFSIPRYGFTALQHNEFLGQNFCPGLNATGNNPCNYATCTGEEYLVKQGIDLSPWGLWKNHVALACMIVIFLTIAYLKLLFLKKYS

[2] = system: P-glycoprotein (P-gp); conditions: cited from earlier work
[3] = target: T1, ABCG2

Compound | ABCG2 inhibitory activity (in words) [1] | other results
CO/C(=C\c1cc(Br)c(O)c(Br)c1)C(=O)N/C=C/c1ccc(OC(C)=O)cc1 [compound 23] | observed inhibitory activity | 
CO/C(=C\c1ccc(O)c(O)c1)C(=O)N/C=C/c1ccc(O)cc1 [compound 21] | retained inhibitory activity | 
CO/C(=C\c1ccc(O)cc1)C(=O)NCC(O)c1ccc(O)cc1 (centres unmarked) [compound 9] | inactive | 
CO/C(=C\c1ccc(O)cc1)C(=O)N/C=C/c1cc(Br)c(O)c(Br)c1 [botryllamide G] |  | Inhibition of efflux of rhodamine out of P-gp-overexpressing cells ([2]; at 50 μM): not the efflux of rhodamine
O=C(/C=C/c1ccc(O)cc1)N/C=C/c1ccc(O)cc1 [compound 18] |  | ABCG2 inhibitory activity (in words) ([1]; at 100 μM): inactive
2-methoxy-p-coumaric acid [compound 8] |  | ABCG2 inhibitory activity (in words) [3]: inactive
CO/C(=C\c1cc(Br)c(O)c(Br)c1)C(=O)N/C=C/c1ccc(O)cc1 [compound 22] | observed inhibitory activity | 
CO/C(=C\c1ccc(O)cc1)C(=O)N/C=C/c1cc(Br)c(OC)c(Br)c1 [botryllamide A, reference compound] |  | Inhibition of export of rhodamine by P-gp [2]: inhibited the export of rhodamine
